Experimental data published in publication PMC6014988, “Precision therapeutic targeting of human cancer cell motility” (Nature Communications, 2018).

Tests used:
MMPs: 1,2,3, and 7-16 = experiment: Qiagen extracellular matrix/adhesion and metastasis/invasion expression arrays; format: cell-based, human; settings: PC3-M cells, three days
Excerpt: Response to Reviewers' comments:
We wish to thank the reviewers for their consideration of our manuscript. Their review and critiques have served to improve this manuscript. Below is a point-by-point response to reviewer critiques.
Changes in the manuscript and associated documents are underlined.
General comments: Much of the data is compelling and would be of interest to readers of Nature Communications, but some experimental procedures require a more thorough description and some of the data are too cursory to support the authors’ mechanistic conclusions...
Response. Thank you for your comprehensive and in formed review, we are encouraged that you felt that our data would be compelling to the readers of Nature Communications. In our revised manuscript as well as below, you will find that we have provided the requested clarifications, expanded descriptions and additional experiments requested.
1. Does the compound (herein abbreviated as ‘46’) have any impact on MMPs or other matrix-destroying activities? […] We did in fact suspect that this may be contributing to KBU2046’s anti-invasion efficacy, and as such we evaluated an entire panel of MMPs as part of two separate expression arrays. […]
2. […] Description of this experiment in both the figure legend and in Supplemental Methods is too cursory for the reader to understand how the treatment plan was selected. […]

[1] = test system: human cord blood CD34+ stem cells; experiment: Hematopoietic stem cell colony formation assay; format: cell-based
Procedure: Fourteen-day colony formation assays were conducted as described by us[39], using human cord blood CD34+ stem cells (AllCells Inc.), using MethoCultExpress™ colony growth media (StemCell Technologies Inc.), performed in replicates of N = 2.

442 kinases = experiment: KINOMEscan assay; format: binding; settings: 10 µM; negatives include MKK4, p38 MAPK, RAF1
Procedure: Initial assays were performed with PC3 and PC3-M cells (PC3 cell data not shown). However, as these studies yielded similar findings, subsequent screening assays utilized only PC3-M cells. In designing chemical synthetic routes, priority was given to efficacy and toxicity parameters. Additional design features were also included in our chemical […]
toxicity parameters. These additional design features included removal of fragments that mediated genistein binding to the estrogen receptor (ER), as determined by ER-genistein 3D x-ray crystal structures (Protein Data Base IDs:1X7R and 1X7J, for crystal structures of ERα and ERβ with bound genistein, respectively). These features also included removal of chemical fragments that are considered to increase susceptibility to rapid metabolism, especially that by the cytochrome P450 (CYP) pathway. The final feature involved incorporation of chemical characteristics previously shown to be associated with effective drugs and which together generally impart more favorable pharmacologic properties, including those described by Lipinski […]
Supplementary Note 2. […] Three […]
different assays systems were employed.
Kinase assay system #1. The KINOMEscan™ assay (Ambit Biosciences). This assay evaluates 442 kinases, including 400 distinct parental kinases plus mutants known to alter activity or responsiveness. […]

RAF1 = experiment: In vitro kinase assay of RAF1, HSP90β and CDC37; format: biochemical; settings: purified recombinant RAF1, HSP90β, CDC37
Procedure: MEK4/MKK4/MAP2K4 in vitro kinase assay was performed as described by us[45].

CDC37 = molecular target: T1, CDC37 (Homo sapiens, UniProt Q16543); experiment: Biophysical binding assays and DARTS, isolated CDC37; settings: ITC, thermal shift, biolayer interferometry, dynamic light scattering, DARTS
T1 construct: made in house; host or cells: BL-21 DE-3 E. coli
Procedure: Fluorescent thermal shift, isothermal titration calorimetry, and biolayer interferometry assays[46] were all performed as described by us using MEK4EE (37-399, S257E, T261E) cloned into pMCSG7 and KRX Competent E. coli cells (Promega Inc.) and above denoted full-length HSP90B and CDC37 vectors and Rosetta BL-21 and BL-21 DE-3 competent E. coli cells, respectively. DARTS assays were conducted as described, using equimolar amounts of CDC37 and HSP90β, thermolysin digestion, and silver stain visualization (ProteoSilver Silver Stain Kit, Sigma-Aldrich).
Supplementary Figure 14. […] Studies used purified […]
recombinant HSP90β or CDC37. Fluorescent thermal shift 5, isothermal titration calorimetry 6, […]
evidence of KBU2046 binding to either HSP90β or CDC37 (data not shown). For DARTS assay, HSP90β or CDC37 were individually pre-incubated with KBU2046, thermolysin added, and reaction products were separated by SDS PAGE and visualized by silver stain (depicted above).
NTco – no thermolysin control. However, when the DARTS assay was conducted with both HSP90β and CDC37 present, KBU2046 protected both proteins from degradation in a concentration-dependent manner (see manuscript Fig 5A).
(also on this page, place not known: HSP90 Ntco 0 0.001 0.01 0.1 1.0 10 µM KBU2046, thermolysin NTco thermolysin CDC37)
(1 picture or pasted object on this page, not shown here)

T1 sequence (Q16543 whole entry): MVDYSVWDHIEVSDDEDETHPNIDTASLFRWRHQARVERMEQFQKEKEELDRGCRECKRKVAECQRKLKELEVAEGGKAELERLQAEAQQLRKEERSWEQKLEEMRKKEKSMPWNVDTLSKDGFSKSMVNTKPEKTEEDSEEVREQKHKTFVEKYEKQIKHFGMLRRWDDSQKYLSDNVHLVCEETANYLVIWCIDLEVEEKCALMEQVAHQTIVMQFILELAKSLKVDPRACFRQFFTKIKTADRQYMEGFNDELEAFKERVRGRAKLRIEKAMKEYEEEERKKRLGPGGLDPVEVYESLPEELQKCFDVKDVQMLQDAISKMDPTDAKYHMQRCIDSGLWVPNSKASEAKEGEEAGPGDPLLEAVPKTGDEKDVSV

**Q.** How did the “expression of MMPs and other array members” value (MMPs: 1,2,3, and 7-16) turn out when `O=C1c2ccccc2OCC1c1ccc(F)cc1` (racemic) [KBU2046, (±)-3(4-fluorophenyl)chroman-4-one] was run?
**A.** no significant differences

**Q.** And the “toxicity to human bone marrow stem cells” value ([1]; 14 days)?
**A.** not toxic

**Q.** What about the “toxicity to stem cells” value ([1]; up to 40 micromolar for 14 days) of the same molecule?
**A.** no toxicity

**Q.** And the “inhibition of kinase binding to immobilized substrate” value (442 kinases)?
**A.** completely negative

**Q.** What about the “phosphorylation of RAF1 Ser338” value (RAF1) of the same molecule?
**A.** decreased phosphorylation of RAF1’s Ser338 activation motif

**Q.** What about the “binding to CDC37” value (CDC37) of the same molecule?
**A.** no evidence of KBU2046 binding
